Assays:
Assay type in all cases: in vivo
[1] = system: human patients with type-1 diabetes and affected by non-proliferative diabetic retinopathy; assay: Clinical study: visual acuity assessed by eye chart; conditions: one tablet daily, 100 mg cloricromene hydrochloride; start of study versus one-year; 20 patients
Procedure: (§1) A clinical study was conducted in order to test the safety and efficacy of the compounds for treating ophthalmic disorders. The study included 40 human patients with type-1 diabetes and affected by non-proliferative diabetic retinopathy. Twenty of the patients received one tablet daily containing cloricromene hydrochloride (100 mg), whereas twenty of the patients formed a control group and received no treatment. Patients were randomly assigned either to receive cloricromene or to receive no treatment. The patients included males and females over 45 years of age assessed with type-1 diabetes mellitus and non-proliferative retinopathy assessed by fundus photography and fluoroscein angiography. For patients with bilateral disease, both eyes were evaluated. For patients with unilateral disease, the affected eye served as the study eye. Excluded from the study were subjects: affected with proliferative diabetic retinopathy; having visual acuity less than 2/10; with a history of renal failure; or receiving treatment with anti-coagulants, platelet anti-aggregants, or fibrinolytics.
(§2) The results summarized in the following tables are based on start of study versus one-year study period. Visual acuity was assessed by the patients' use of an eye chart. The presence of hemorrhaging, hard exudates or vascular leakage in the retina was evaluated as a means of grading degree of retinal lesion. Hemorrhaging and hard exudates were assessed primarily by observing the stereoscopic color fundus photographs of the retain. Vascular leakage was assessed primarily by fluorescein staining.

[2] = system: human patients with type-1 diabetes and affected by non-proliferative diabetic retinopathy; assay: Clinical study: retinal vascular leakage (fluorescein staining); conditions: one tablet daily, 100 mg cloricromene hydrochloride; start of study versus one-year; 20 patients
Procedure: as §1, §2

[3] = system: human patients with type-1 diabetes and affected by non-proliferative diabetic retinopathy; assay: Clinical study: hard exudates in the retina (stereoscopic color fundus photographs); conditions: one tablet daily, 100 mg cloricromene hydrochloride; start of study versus one-year; 20 patients
Procedure: as §1, §2

[4] = system: human patients with type-1 diabetes and affected by non-proliferative diabetic retinopathy; assay: Clinical study: retinal hemorrhages (stereoscopic color fundus photographs); conditions: one tablet daily, 100 mg cloricromene hydrochloride; start of study versus one-year; 20 patients
Procedure: as §1, §2

[5] = system: human patients with type-1 diabetes and affected by non-proliferative diabetic retinopathy; assay: Clinical study: overall progression of retinal damage; conditions: one tablet daily, 100 mg; one-year study period; versus untreated controls
Procedure: as §1, with “Excluded from the study were subjects: affected with proliferative diabetic retinopathy; having visual acuity less than 2/10; with a history of renal failure; or receiving treatment with anti-coagulants, platelet anti-aggregants, or fibrinolytics.” left out
as §2

Which results are given for `CCOC(=O)COc1ccc2c(C)c(CCN(CC)CC)c(=O)oc2c1Cl` [Cloricromene, cloricromene]?
Visual Acuity: Improved, number of patients (%) [1]: 11 (55%); Visual Acuity: Stable, number of patients (%) [1]: 8 (40%); Visual Acuity: Worse, number of patients (%) [1]: 1 (5%); Vascular Leakage: Improved, number of patients (%) [2]: 3 (15%); Vascular Leakage: Stable, number of patients (%) [2]: 16 (80%); Vascular Leakage: Worse, number of patients (%) [2]: 1 (5%); Hard Exudates: Improved, number of patients (%) [3]: 14 (70%); Hard Exudates: Stable, number of patients (%) [3]: 6 (30%); Hard Exudates: Worse, number of patients (%) [3]: 0 (0%); Retinal Hemorrhages: Improved, number of patients (%) [4]: 13 (65%); Retinal Hemorrhages: Stable, number of patients (%) [4]: 6 (30%); Retinal Hemorrhages: Worse, number of patients (%) [4]: 1 (5%); progression of retinal damage in diabetic patients [5]: effective in delaying the progression of retinal damage

Source: patent US20050054586A1, “Treatment of ophthalmic disorders” (priority 2003, published 2005)
